Measurements: patent US9044482B2, “Use of aminoindane compounds in treating overactive bladder and interstitial cystitis” (priority 2012, dated 2015)

Legend:
[1] = test system: noxious urinary bladder distention; settings: in vivo; cited from earlier work
[2] = test system: isolated detrusor bladder muscle; assay: In vitro assay on isolated bladder detrusor muscle strips, EFS-induced contractions in organ bath; design: species or system guinea pig; settings: for IC50, inhibition of EFS-induced detrusor contractions: cumulative concentration-response, isolated guinea pig detrusor strips; for steady-state inhibition of EFS-induced contractile response: drug 0.01% in organ bath
Protocol: Whole bladders were removed from euthanized female guinea pigs, longitudinal detrusor muscle strips were dissected from each bladder and were mounted in a conventional glass organ bath and perfused continuously with an oxygenated Krebs solution. Detrusor contractions were elicited in response to electrical field stimulation (EFS) and were recorded using isometric force transducers linked to a data acquisition software system. After an equilibration period, tissue strips were subjected to regular EFS for a period of 30 minutes or until stable baseline contractions were attained.

bladder function = assay: In vivo assay of bladder function (cystometry) in conscious rats; design: species or system rat
Protocol: This study was performed in order to assess the effects of compounds on various aspects of bladder function in conscious rats. See, Clouse, 2012, Urology 79(6):1410e1-1410e6. Rats were prepared with indwelling polyethylene catheters positioned into the bladder through the dome and exteriorized at the scapular level. […] pressure was monitored by connecting the catheter to a commercial strain gauge via a T-connector that permitted the infusion of solutions and drugs. Cystometric recording commenced 48 hours after catheter implantation. Animals were continuously administered saline, with or without test compounds, through the catheter, at a rate of 2 mL/hr. Urine was collected and weighed using a force transducer and intravesical pressure was continually monitored in order to assess micturition amplitude, frequency and volume and bladder capacity. Saline perfusions were supplemented with test compounds in order to determine the effects on each of the above bladder function parameters.

micturition pattern = settings: animal model of IC and OAB; cited from earlier work
[3] = infusion of 0.3% solution into bladder, conscious rats

Cc1cccc(C)c1OCC(C)N (stereo not shown) [mexilitine]
painful sensation of noxious urinary bladder distention [1]: prevents the painful sensation

Cc1ccccc1N(CC[C@H]1CCCC[N+]1(C)C)C1Cc2ccccc2C1.[Br-] [example 43, (R)-1,1-dimethyl-2-[2-((indan-2-yl)(2-methylphenyl)amino)ethyl]piperidinium iodide]
time for which steady state inhibition was maintained after drug had been eliminated from the organ bath ([2]; 0.01%): at least 2 hours | IC50, inhibition of EFS-induced detrusor contractions [2]: ~0.0001% | steady-state inhibition of EFS-induced contractile response [2]: 30-45% | potency relative to lidocaine alone ([2]; from IC50 for inhibition of EFS-induced detrusor contractions): about 10 fold | period of effect on bladder capacity and micturition volume after administration (bladder function; infusion of 0.3% solution): 2 h | bladder capacity (bladder function; [3]): increase in bladder capacity | micturition volume (bladder function; [3]): decrease in micturition volume

Cc1ccccc1N(CC[C@H]1CCCC[N+]1(C)C)C1Cc2ccccc2C1.[I-] [(R)-1,1-dimethyl-2-[2-((indan-2-yl)(2-methylphenyl)amino)ethyl]piperidinium iodide]
duration of action on micturition frequency (bladder function; compared to lidocaine): longer duration of action

CCN(CC)CC(=O)Nc1c(C)cccc1C [lidocaine, reference compound]
recovery of EFS-induced contractile response after washout ([2]; 0.01%, by 2 hours after washing out): around 80 % of predrug levels | IC50, inhibition of EFS-induced detrusor contractions [2]: ~0.001% | steady-state inhibition of EFS-induced contractile response [2]: ~40% | micturition pattern as determined by cystometry (micturition pattern): normalizes the micturition pattern
